Data from patent US9481885B2, “Methods and compositions related to miR-21 and miR-29a, exosome inhibition, and cancer metastasis” (Ohio State Innovation Foundation, priority 2011, dated 2016).

Assays:
TLR8-HEK-293 cells = experiment: NF-κB activation in TLR8-HEK-293 cells treated with LLC exosomes, with or without Bafilomycin A; assay type: cell-based, human; conditions: TLR8-HEK-293 cells pretreated with 10 nM Bafilomycin A; P<0.0005
Protocol: Next, LLC cells were injected into the tails of WT and TLR7^−/− mice and the overall survival of the animals and number of lung multiplicities after necropsy was assessed. […] For the experiment with Bafilomycin A, TLR8-HEK-293 cells were seeded in a 24-well plate at a density of 200,000 cells per well. The next day cells were preincubated with 10 nM Bafilomycin A (Sigma) for 30 min and then were treated for 24 h with exosomes purified from LLC cells in the presence or absence of 10 nM Bafilomycin A. Cell supernatants were collected and harvested, and the QUANTI-Blue Assay was performed. NF-κB activity was assessed by QUANTI-Blue Assay (Invivogen). HEK-Blue-TLR7 and TLR8 293 cells allow verification of the activation of NF-κB after the stimulation of the respective TLRs. Both these cell lines were obtained by co-transfection of the TLR7 and 8 genes and an optimized secreted embryonic alkaline phosphatase reporter gene (SEAP) under the control of the […] minimal promoter fused to five NF-κB and AP-1-binding sites into HEK-293 cells. […] Levels of SEAP can be easily determined with QUANTI-Blue, a detection medium that turns purple/blue in the presence of alkaline phosphatase. […] The plate was then incubated at 37° C. for 1-3 h and SEAP levels were determined by reading the plate with a spectrophotometer at 620-655 nm (SpectraMax, Molecular Devices).

LLC cells = experiment: Lung multiplicities in LLC-injected B6 mice treated with GW4869, with exosome rescue; assay type: in vivo, mouse; conditions: WT B6 mice injected with LLC cells; GW4869 i.p. 1.25 mg/kg/d for 5 d
Protocol: Finally, to assess the role of miRNAs released from lung cancer exosomes in TLR7 activation and in the metastatic process, the expression was silenced of miR-16 or of miR-21 and -29a combined in LLC cells by Locked Nucleic Acid (LNA) anti-miRNA inhibitors. After anti-miRNA transfection, the levels of the silenced miRNAs were reduced in the exosomes derived from these cells (FIG. 7F). The transfected cells were injected into the tail vein of B6 mice, and lung multiplicities were counted. […] We further investigated which miRNAs are expressed in cancer cells and adjacent normal lung tissues in mice injected with anti-scrambled LLCs or anti-miR-21/29a LLCs. Cancer cells in lung tumors developed by mice injected with anti-scrambled LLC were positive for the anti-scrambled oligonucleotide.
The in vivo rescue experiment with LLC cells was conducted in 15 male, 7-wk-old B6 mice. Mice were injected with 1.8×10^6 LLC cells in the tail vein in 300 μL of volume (T0). After 4 d (T4), i.p. injections were started for 10 mice with GW4869 (1.25 mgkg^−1d^−1), an inhibitor of exosome secretion also able to reduce the content of miRNAs in secreted exosomes, and of five mice with DMSO (a solvent of GW4869) as a control, daily for 5 d consecutively. […] All mice were killed at T18, necropsy was performed, and lung multiplicities were counted.

| Compound | NF-κB activation by LLC-derived exosomes in the presence of Bafilomycin A (TLR8-HEK-293 cells) | number of lung multiplicities (LLC cells) |
| --- | --- | --- |
| CO/C1=C\C(C)=C\[C@@H](C)[C@@H](O)[C@@H](C)C/C(C)=C/C=C/[C@H](OC)[C@@H]([C@@H](C)[C@@H](O)[C@H](C)[C@@]2(O)C[C@@H](O)[C@H](C)[C@@H](C(C)C)O2)OC1=O [Bafilomycin A] | significantly reduced |  |
| O=C(/C=C/c1ccc(/C=C/C(=O)Nc2ccc(C3=NCCN3)cc2)cc1)Nc1ccc(C2=NCCN2)cc1 [GW4869] |  | significantly lower |
